Results published in US10023570B2 (Array BioPharma, Inc., priority 2015, dated 2018).
Counter-ions that a name gives are not always drawn. Like-named read-outs stand apart in the source and are kept apart here.

Legend:
[1] = biological target: N-terminal GST tagged recombinant human RET cytoplasmic domain (aa 658-end), wild type RET kinase (Homo sapiens (Human), UniProt P07949); test: RET Enzyme Assay (HTRF KinEASE-TK), wild type RET; type: biochemical
[2] = biological target: Kif5b-RET fusion protein in HEK-293 cells (Homo sapiens, UniProt P07949); test: cell-based
Chain of Kif5b-RET fusion protein in HEK-293 cells (P07949 29-1114 limits assumed): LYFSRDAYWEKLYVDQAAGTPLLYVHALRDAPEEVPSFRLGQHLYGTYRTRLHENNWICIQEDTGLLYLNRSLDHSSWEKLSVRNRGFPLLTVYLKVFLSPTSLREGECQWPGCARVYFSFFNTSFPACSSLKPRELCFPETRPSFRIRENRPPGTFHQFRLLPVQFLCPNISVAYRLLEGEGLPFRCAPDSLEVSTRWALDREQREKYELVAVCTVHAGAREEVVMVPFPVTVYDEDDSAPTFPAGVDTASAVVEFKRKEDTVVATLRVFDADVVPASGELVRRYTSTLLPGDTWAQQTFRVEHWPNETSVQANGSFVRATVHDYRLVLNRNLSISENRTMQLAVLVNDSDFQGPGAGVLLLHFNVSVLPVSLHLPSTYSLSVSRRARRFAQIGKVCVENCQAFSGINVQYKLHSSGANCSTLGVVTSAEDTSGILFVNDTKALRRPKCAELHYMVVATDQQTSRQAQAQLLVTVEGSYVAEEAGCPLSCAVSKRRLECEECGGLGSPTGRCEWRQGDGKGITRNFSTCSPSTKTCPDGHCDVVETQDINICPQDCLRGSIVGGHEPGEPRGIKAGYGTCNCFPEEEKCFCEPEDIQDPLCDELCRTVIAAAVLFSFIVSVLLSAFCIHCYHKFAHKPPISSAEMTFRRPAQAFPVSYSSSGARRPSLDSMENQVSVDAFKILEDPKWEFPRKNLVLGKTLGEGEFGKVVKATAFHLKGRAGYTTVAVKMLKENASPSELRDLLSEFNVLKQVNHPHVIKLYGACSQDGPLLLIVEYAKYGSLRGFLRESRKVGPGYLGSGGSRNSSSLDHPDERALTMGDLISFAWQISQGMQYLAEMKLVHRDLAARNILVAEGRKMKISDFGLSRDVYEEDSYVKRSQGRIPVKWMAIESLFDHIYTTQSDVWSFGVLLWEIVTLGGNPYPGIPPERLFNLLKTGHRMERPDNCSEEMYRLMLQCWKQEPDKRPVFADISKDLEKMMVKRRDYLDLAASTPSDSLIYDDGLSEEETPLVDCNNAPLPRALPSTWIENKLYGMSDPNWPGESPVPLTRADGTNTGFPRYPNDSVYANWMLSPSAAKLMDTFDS

[3] = biological target: human KDR protein in HEK-293 cells (Homo sapiens (Human), UniProt P35968); test: KDR Cell Assay (phospho-KDR in HEK-293 cells expressing inducible KDR); type: cell-based; conditions: pKDR Cell HEK 10% FBS IC50, HEK-293 cells expressing inducible KDR, VEGF stimulated
Chain of human KDR protein in HEK-293 cells (P35968 20-1356): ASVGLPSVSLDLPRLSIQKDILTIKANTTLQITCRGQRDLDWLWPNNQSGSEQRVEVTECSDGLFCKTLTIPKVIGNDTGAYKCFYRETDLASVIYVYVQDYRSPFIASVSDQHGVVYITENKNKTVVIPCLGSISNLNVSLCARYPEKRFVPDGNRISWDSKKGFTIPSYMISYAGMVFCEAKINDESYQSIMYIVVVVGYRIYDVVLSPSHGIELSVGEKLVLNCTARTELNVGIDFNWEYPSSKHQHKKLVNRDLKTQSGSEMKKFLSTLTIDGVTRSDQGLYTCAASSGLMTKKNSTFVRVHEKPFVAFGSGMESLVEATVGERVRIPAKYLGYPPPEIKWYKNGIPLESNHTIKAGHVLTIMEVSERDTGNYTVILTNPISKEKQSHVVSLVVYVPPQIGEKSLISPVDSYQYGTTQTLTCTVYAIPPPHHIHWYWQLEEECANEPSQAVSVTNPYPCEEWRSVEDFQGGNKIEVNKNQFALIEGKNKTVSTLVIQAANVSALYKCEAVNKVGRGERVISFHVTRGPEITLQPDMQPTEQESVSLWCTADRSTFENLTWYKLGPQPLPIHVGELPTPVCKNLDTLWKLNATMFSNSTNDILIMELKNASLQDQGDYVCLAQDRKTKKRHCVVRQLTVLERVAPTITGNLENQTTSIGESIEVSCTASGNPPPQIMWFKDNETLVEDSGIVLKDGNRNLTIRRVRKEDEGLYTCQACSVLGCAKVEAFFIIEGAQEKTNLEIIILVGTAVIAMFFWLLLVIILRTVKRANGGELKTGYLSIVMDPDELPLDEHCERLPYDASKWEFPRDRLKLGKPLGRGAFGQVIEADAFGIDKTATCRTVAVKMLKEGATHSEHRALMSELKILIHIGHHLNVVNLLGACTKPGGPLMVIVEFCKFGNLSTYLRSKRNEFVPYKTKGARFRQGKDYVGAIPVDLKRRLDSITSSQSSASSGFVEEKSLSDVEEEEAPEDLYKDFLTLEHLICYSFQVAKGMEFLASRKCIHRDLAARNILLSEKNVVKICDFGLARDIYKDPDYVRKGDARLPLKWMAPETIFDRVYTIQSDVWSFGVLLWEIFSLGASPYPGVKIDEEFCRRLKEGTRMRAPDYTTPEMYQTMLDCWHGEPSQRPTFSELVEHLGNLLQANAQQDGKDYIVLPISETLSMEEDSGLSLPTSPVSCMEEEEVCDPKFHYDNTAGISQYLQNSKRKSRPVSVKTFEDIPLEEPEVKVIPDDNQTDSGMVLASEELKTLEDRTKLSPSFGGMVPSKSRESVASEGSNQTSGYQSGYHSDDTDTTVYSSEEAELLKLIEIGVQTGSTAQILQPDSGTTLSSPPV
Procedure, shortened: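 HEK-293 cells with inducible human KDR were treated with compound for 1 h in DMEM (0.25% DMSO final), then lysed. Phospho-KDR was quantified by Meso Scale immunoassay, expressed as percent of control, and IC50 taken where a 4-parameter logistic fit crossed 50 POC.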

[4] = HEK-293 cells expressing Kif5b-RET, read-out: KIF5B-RET pTYR1062 Cell IC50
[5] = HEK-293 cells expressing Kif5b-RET, phospho-RET(Tyr1062), read-out: KIF5B-RET pTYR1062 Cell IC50

Chain of N-terminal GST tagged recombinant human RET cytoplasmic domain (aa 658-end), wild type RET kinase (P07949 658-1114): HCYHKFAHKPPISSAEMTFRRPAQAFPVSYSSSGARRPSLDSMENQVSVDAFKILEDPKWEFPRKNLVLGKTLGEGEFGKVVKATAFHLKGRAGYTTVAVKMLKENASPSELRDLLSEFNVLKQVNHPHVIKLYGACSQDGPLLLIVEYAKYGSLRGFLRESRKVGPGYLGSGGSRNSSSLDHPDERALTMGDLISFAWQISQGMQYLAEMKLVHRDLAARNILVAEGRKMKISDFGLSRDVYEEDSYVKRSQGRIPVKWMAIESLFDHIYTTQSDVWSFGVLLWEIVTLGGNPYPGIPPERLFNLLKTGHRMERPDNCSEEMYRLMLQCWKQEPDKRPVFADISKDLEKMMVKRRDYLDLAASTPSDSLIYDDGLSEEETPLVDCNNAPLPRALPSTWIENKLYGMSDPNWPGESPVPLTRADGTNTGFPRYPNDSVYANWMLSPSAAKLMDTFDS

| Compound | IC50 ([1]; wild type RET, 1 mM ATP) [µM] | IC50 [2, 4] [µM] | IC50 [2, 5] [µM] | IC50 ([3]; 10% FBS) [µM] | IC50 [3] [µM] | IC50 [2] [µM] | IC50 [1] [µM] |
| --- | --- | --- | --- | --- | --- | --- | --- |
| C[C@@H](CO)Cn1cc(-c2cc(-c3ccc(N4CCN(Cc5ccccc5)CC4)nc3)c3c(C#N)cnn3c2)cn1 [Example 592, (R)-4-(6-(4-benzylpiperazin-1-yl)pyridin-3-yl)-6-(1-(3-hydroxy-2-methylpropyl)-1H-pyrazol-4-yl)pyrazolo[1,5-a]pyridine-3-carbonitrile] | 0.0161 | 0.0174 | – | – | 0.283 | – | – |
| CC(C)N(CCO)C(=O)C1CCN(c2ccc(-c3cc(-c4cnn(C)c4)cn4ncc(C#N)c34)cn2)CC1 [Example 561, 1-(5-(3-cyano-6-(1-methyl-1H-pyrazol-4-yl)pyrazolo[1,5-a]pyridin-4-yl)pyridin-2-yl)-N-(2-hydroxyethyl)-N-isopropylpiperidine-4-carboxamide 2,2,2-trifluoroacetate] | 0.0238 | – | – | – | 1.73 | 0.0375 | – |
| Cn1cc(-c2cc(-c3ccc(N4CCC(O)(C(F)(F)F)CC4)nc3)c3c(C#N)cnn3c2)cn1 [Example 510, 4-(6-(4-hydroxy-4-(trifluoromethyl)piperidin-1-yl)pyridin-3-yl)-6-(1-methyl-1H-pyrazol-4-yl)pyrazolo[1,5-a]pyridine-3-carbonitrile 2,2,2-trifluoroacetate] | – | 0.0096 | – | – | 0.323 | – | 0.0067 |
| Cn1cc(-c2cc(-c3ccc(N4CCNCC4)nc3)c3c(C#N)cnn3c2)cn1 [Example 2, 6-(1-methyl-1H-pyrazol-4-yl)-4-(6-(piperazin-1-yl)pyridin-3-yl)pyrazolo[1,5-a]pyridine-3-carbonitrile dihydrochloride] | – | – | 0.111 | 1.08 | – | – | 0.0196 |

More lines, main results first:

| IC50 ([1]; wild type RET, 1 mM ATP) [µM] | IC50 [2, 4] [µM] | IC50 [2, 5] [µM] | IC50 ([3]; 10% FBS) [µM] | Compound | IC50 [3] [µM] | IC50 [2] [µM] | IC50 [1] [µM] |
| --- | --- | --- | --- | --- | --- | --- | --- |
| 0.0271 | 0.0473 | – | – | COCCN(CCOC)C(=O)N1CCN(c2ccc(-c3cc(-c4cnn(C)c4)cn4ncc(C#N)c34)cn2)CC1 [Example 385, 4-(5-(3-cyano-6-(1-methyl-1H-pyrazol-4-yl)pyrazolo[1,5-a]pyridin-4-yl)pyridine-2-yl)-N,N-bis(2-methoxyethyl)piperazine-1-carboxamide] | 1.97 | – | – |
| 0.018 | – | 0.0308 | 0.547 | Cn1cc(-c2cc(-c3ccc(N4CCC(NC(=O)C(C)(C)O)CC4)nc3)c3c(C#N)cnn3c2)cn1 [Example 179, N-(1-(5-(3-cyano-6-(1-methyl-1H-pyrazol-4-yl)pyrazolo[1,5-a]pyridin-4-yl)pyridin-2-yl)piperidin-4-yl)-2-hydroxy-2-methylpropanamide] | – | – | – |
| 0.0043 | – | 0.0017 | 0.147 | CC(C)CNC(=O)N1CCN(c2ccc(-c3cc(-c4cnn(C)c4)cn4ncc(C#N)c34)cn2)CC1 [Example 133, 4-(5-(3-cyano-6-(1-methyl-1H-pyrazol-4-yl)pyrazolo[1,5-a]pyridin-4-yl)pyridin-2-yl)-N-isobutylpiperazine-1-carboxamide] | – | – | – |
| 0.0239 | – | 0.108 | 0.749 | C[C@@H](O)C(=O)N1CCN(c2ccc(-c3cc(-c4cnn(C)c4)cn4ncc(C#N)c34)cn2)CC1 [Example 32, (R)-4-(6-(4-(2-hydroxypropanoyl)piperazin-1-yl)pyridin-3-yl)-6-(1-methyl-1H-pyrazol-4-yl)pyrazolo[1,5-a]pyridine-3-carbonitrile] | – | – | – |
